Results published in patent publication US10881623B2, “Compositions for the management of hyperglycemia and related conditions” (SAMI LABS LIMITED, priority 2017, dated 2021).

Experiments:
Adipocytes = experiment: Glucose uptake in adipocytes; format: cell-based; conditions: compared to thymoquinone; FIG. 2
[1] = DPPH radical scavenging assay; conditions: concentration reducing DPPH absorbance by 50%
Procedure: DPPH is a stable free radical in a methanolic solution with an absorbance at 520 nm. If the free radicals are scavenged by an anti oxidant molecule, the resulting solution appears yellow. The hydrogen atoms or electrons donation ability of the extracellular metabolite was measured by the bleaching of purple coloured DPPH methanol solution.
Thymoquinone, Thymohydroquinone and the composition comprising thymohydroquinone were prepared in varying concentrations. For the DPPH radical scavenging assay, 20 μL of test material was mixed with 180 μL of DPPH in methanol in a 96 well plate following the method as described earlier (Clarke et al., 2013). The plate was kept in the dark for 15 min, after which the absorbance of the solution was measured at 540 nm using a microplate reader (TECAN Ltd, Männedorf, Switzerland). Blanks (DMSO, methanol) and standard (Trolox solution in DMSO) were recorded simultaneously. The extracts were screened with variable concentrations to establish the inhibition concentration (IC50, the concentration reducing DPPH absorbance by 50%).
The free radical scavenging activity was calculated as follows,
Where, • B=Absorbance of reference solution (OD of DPPH) • C=Absorbance of reference solution, blank (OD of Methanol only) • S=Absorbance of test solution • […]

[2] = system: Muscle cells (C2C12 myotubes); experiment: Glucose uptake (2-NBDG, flow cytometry) in differentiated C2C12 myotubes; format: cell-based; conditions: compared to thymoquinone; FIG. 2
Procedure: The skeletal muscle cell line C2C12 myoblasts (procured from ATCC) were maintained in DMEM supplemented with 10% Fetal Bovine Serum at 37° C. with 5% CO2. Twenty thousand cells per well were seeded in a 24 well plate. When the cells reached 80-90% confluence, differentiation was induced by replacing the growth medium with DMEM containing 1% horse serum. Experiments were performed in completely differentiated C2C12 myotubes after 4-5 days in differentiation medium. Cells were then treated with 0.5% BSA in low glucose media for 16 hours and washed with cold Krebs-Ringer phosphate buffer without glucose. Cells were then treated with different non cytotoxic concentrations of samples in low glucose DMEM media with or without insulin at a concentration of 0.1 μM for 30 minutes at 37° C. Cells were then washed with cold PBS and stained with 5 μM of a fluorescent D-glucose analog 2-[N-(7-nitrobenz-2-oxa-1,3-diazol-4-yl) amino]-2-deoxy-D-glucose (2-NBDG) for 15 minutes in dark followed by flow cytometric detection of fluorescence produced by the cells.

[3] = Anti-glycation, Ribose-BSA method, pentosidine AGE
Procedure: (§1) AGEs can be fluorescent as well as non fluorescent in nature. Typically the vesperlysine type of AGE have an excitation at 370-nm and emission at 440 nm, while pentosidine like AGE have an excitation at 335 nm and emission at 385 nm. The principle is based on the fact that ribose sugar and bovine serum albumin are mixed in specific ratio and incubated for 24 hours. Vesperlysine like AGE formed by the reaction was e estimated by the increase in fluorescence detected, at Ex/Em at 390/460 nm and pentosidines were detected at Ex/Em at 320/405 nm
(§2) Ribose—BSA method: 10 μl of various concentrations of samples were added to 40 μl of BSA (bovine serum albumin, 25 mg/ml stock) and 50 μl of D-Ribose (150 mg/ml stock) was added per well of black 96-well microplate and incubated for 24 h at 37° C. BSA was taken as the control. The AGEs (advanced glycation end product) formed were detected by the fluorescence at Ex/Em at 390/460 nm for vesperlysine and Ex/Em at 320/405 nm for pentosidine AGE.

[4] = Anti-glycation, Ribose-BSA method, vesperlysine-like AGE
Procedure: as §1, §2

α-glucosidase = target: T1, α-glucosidase (Saccharomyces cerevisiae, UniProt P53341); experiment: α-glucosidase inhibition (paranitrophenyl-α-d-glucopyranoside substrate); format: biochemical; conditions: enzyme 0.15 U/ml, substrate 1.25 mM, absorbance 405 nm
T1 construct: purchased Sigma-Aldrich G5003
Procedure: For glucosidase inhibition, α-glucosidase (Code G5003; Sigma-Aldrich, St. Louis, Mo., USA) was dissolved in 67 mM potassium phosphate buffer, pH 6.8, containing 8 containing 0.2% Bovine Serum Albumin (Sigma-Aldrich) & 0.02% sodium azide (Sigma-Aldrich) which was used as enzyme source. Paranitrophenyl-α-d-glucopyranoside (Sigma-Aldrich) was used as substrate. Thymoquinone, thymohydroquinone and composition containing thymohydroquinone were weighed prepared at concentration of 63, 125, 250 and 500 μg/ml and were made up with equal volumes of distilled water. 50 μl of said composition was incubated for 5 min with 50 μl enzyme source (0.15 U/ml). After incubation, 50 μl of substrate (1.25 mM) was added and further incubated for 20 min at room temperature. Presubstrate and post-substrate addition, absorbance was measured at 405 nm on a microplate reader (BMG FLUOstar OPTIMA Microplate Reader). The increase in absorbance on substrate addition was obtained. Each test was performed three times and the mean absorption was used to calculate percentage α-glucosidase inhibition. Acarbose was used as positive control with various concentrations. The inhibitory activities of varying concentrations of said composition were expressed as 100 minus the absorbance difference (%) of the said composition relative to the absorbance change of the negative control (i.e., water used as the test solution). […]

TNF-α = TNF-α secretion by LPS-stimulated THP-1 cells (ELISA); format: cell-based, human; conditions: for inhibition at 0.03 µg/mL / inhibition at 0.06 µg/mL / inhibition at 0.13 µg/mL: Homo sapiens, THP-1, LPS 0.1 μg/mL, 24 hour; for inhibition at 0.03 µg/mL: 0.03 μg/mL; for inhibition at 0.06 µg/mL: 0.06 μg/mL; for inhibition at 0.13 µg/mL: 0.13 μg/mL
Procedure: Cells: THP1-human monocytes purchased from American Type Culture Collection (ATCC, Manassas, Va.) and maintained as a monolayer culture in Rosewell park memorial institute Medium (RMPI Life technologies, CA, USA.) supplemented with 10% (v/v) heat-inactivated foetal bovine serum (FBS; GIBCO/Invitrogen, Carlsbad, Calif.), 100 units/mL penicillin and 100 μg/mL streptomycin (Life technologies) at 37° C. in a humidified 5% CO2 incubator.
Reagents and buffers: Lipopolysaccharide (LPS, Sigma chemicals, USA), Phosphate buffered saline, RPMI, FBS
ELISA kit: Human TNF ELISA kit, Krishgen Biosciences, USA
Anti inflammatory activity was examined using human monocyte/macrophage cell line THP-Monocytes respond to lipopolysaccharides (LPS) by secreting proinflammatory cytokines. Tumour necrosis factor (TNF-α) is one of the principle cytokine which triggers a cascade of inflammatory reactions. The concentration of TNF-α was measured using an Enzyme linked Immunosorbent assay (ELISA). Reduction in TNF-α concentration indicates an anti inflammatory activity of the compound.
1×10^5 THP-1 cells were stimulated with 100 ng with lipopolysacharide (LPS, 0.1 μg/mL) to induce TNF-α secretion. Cells were pre treated with different concentrations of test materials (Thymoquinone, thymohydroquinone and a composition comprising thymohydroquinone) before LPS treatment. The cell supernatants were collected 24 hour after treatment and secreted TNF-α as estimated by cytokine ELISA as described by the manufacturer. Unstimulated cells were used as negative control. The limit of detection was <1 pg/mL.

T1 sequence (P53341 whole entry): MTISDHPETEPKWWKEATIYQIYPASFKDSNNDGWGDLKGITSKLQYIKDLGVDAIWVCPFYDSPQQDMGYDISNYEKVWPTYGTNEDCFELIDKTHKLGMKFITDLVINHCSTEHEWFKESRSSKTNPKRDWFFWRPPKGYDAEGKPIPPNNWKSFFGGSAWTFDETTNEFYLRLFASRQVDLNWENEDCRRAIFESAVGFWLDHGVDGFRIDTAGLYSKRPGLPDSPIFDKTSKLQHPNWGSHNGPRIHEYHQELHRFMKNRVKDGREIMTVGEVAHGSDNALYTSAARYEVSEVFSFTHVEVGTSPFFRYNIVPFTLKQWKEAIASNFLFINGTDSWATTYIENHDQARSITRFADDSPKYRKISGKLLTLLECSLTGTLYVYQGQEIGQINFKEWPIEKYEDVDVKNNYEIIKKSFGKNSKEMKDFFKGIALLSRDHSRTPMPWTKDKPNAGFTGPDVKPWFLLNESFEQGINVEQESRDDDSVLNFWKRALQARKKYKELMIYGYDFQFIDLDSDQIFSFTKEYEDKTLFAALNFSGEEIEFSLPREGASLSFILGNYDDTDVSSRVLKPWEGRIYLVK

SMILES | glucose uptake in Adipocytes (Adipocytes) | IC50 of DPPH scavenging [1] [µg/mL] | glucose uptake in Muscle cells [2] | IC50, Inhibition of pentosidine Ex/Em at 320/405 nM [3] [µg/mL] | % Inhibition of pentosidine Ex/Em at 320/405 nm ([3]; 15.63 μg/mL) [%] | % Inhibition of pentosidine Ex/Em at 320/405 nm ([3]; 31.25 μg/mL) [%] | % Inhibition of pentosidine Ex/Em at 320/405 nm ([3]; 62.5 μg/mL) [%] | % Inhibition of pentosidine Ex/Em at 320/405 nm ([3]; 125 μg/mL) [%] | % Inhibition of pentosidine Ex/Em at 320/405 nm ([3]; 250 μg/mL) [%] | IC50, inhibition of vesperlysine Ex/Em at 390/460 nM [4] [µg/mL] | % inhibition of vesperlysine Ex/Em at 390/460 nm ([4]; 15.63 μg/mL) [%] | % inhibition of vesperlysine Ex/Em at 390/460 nm ([4]; 31.25 μg/mL) [%] | % inhibition of vesperlysine Ex/Em at 390/460 nm ([4]; 62.5 μg/mL) [%] | % inhibition of vesperlysine Ex/Em at 390/460 nm ([4]; 125 μg/mL) [%] | % inhibition of vesperlysine Ex/Em at 390/460 nm ([4]; 250 μg/mL) [%] | IC50 (α-glucosidase) [µM] | inhibition at 0.03 µg/mL (TNF-α) [%] | inhibition at 0.06 µg/mL (TNF-α) [%] | inhibition at 0.13 µg/mL (TNF-α) [%] | cell viability (TNF-α; THP-1 cells in the TNF-α test)
Cc1cc(O)c(C(C)C)cc1O [Thymohydroquinone, thymohydroquinone] | enhanced glucose uptake | 1.78 | enhanced glucose uptake | 65.89 | 5.39 | 28.73 | 49.55 | 68.33 | 89.31 | 108.30 | 23.03 | 34.06 | 43.83 | 52.28 | 60.42 | 433 | 2.5 | 4.5 | 11.9 | without affecting the cell viability
CC1=CC(=O)C(C(C)C)=CC1=O [Thymoquinone, thymoquinone, reference compound] |  |  |  | 142.70 | 0 | 23.59 | 0.06 | 44.57 | 61.80 | 157.80 | 0 | 38.55 | 40.81 | 44.54 | 56.69 | 2480 | 22 | 31 | 35 | 
